Experimental data: publication PMC8658095, “PHA-680626 Is an Effective Inhibitor of the Interaction between Aurora-A and N-Myc” (International Journal of Molecular Sciences, 2021)
Where two headings read alike, the source gives them in different places. Each block holds one compound with its values, some of them ahead of it.

Assays:
[1] = parameters: method as in PMID 25175806; settings: cited from earlier work
[2] = biological target: T1, AURKA (Homo sapiens, UniProt O14965); experiment: SPR binding kinetics on immobilized AURKA; settings: 25 °C, flow rate 150 μL/min
T1 construct: the catalytic domain of human AURKA (amino acids 122–430); His-tag followed by TEV protease cleavage site (N); made in house; host or cells: bacterial culture (LB, kanamycin, IPTG induction; pETM11)
T1 sequence (O14965 122-403 limits assumed): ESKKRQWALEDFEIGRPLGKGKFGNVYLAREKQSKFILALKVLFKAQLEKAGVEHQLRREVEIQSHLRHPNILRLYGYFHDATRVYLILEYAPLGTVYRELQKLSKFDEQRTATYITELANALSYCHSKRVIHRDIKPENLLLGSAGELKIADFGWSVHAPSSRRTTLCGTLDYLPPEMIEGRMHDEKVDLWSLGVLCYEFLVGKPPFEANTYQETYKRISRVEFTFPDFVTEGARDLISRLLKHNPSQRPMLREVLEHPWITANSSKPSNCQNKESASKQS
Experimental: AURKA was immobilized onto a PCH sensor chip, and each compound was injected at increasing concentrations in the running buffer. The interaction between AURKA and the ligands was indicated by the increase in Resonance Units (RUs), compared to the baseline.
SPR experiments were performed at 25 °C using a Pioneer AE optical biosensor (Molecular Devices-ForteBio, Fremont, CA, USA) equipped with a PCH sensor chip and equilibrated with running buffer 10 mM Hepes pH 7.4, 150 mM NaCl, 1% DMSO, 0.005% Tween20. The sensor chip was chemically activated for 7 min by injecting 175 μL of a 1:1 mixture of 100 mM N-hydroxysuccinimide (NHS) and 400 mM ethyl−3 (3-dimethylamino) propyl carbodiimide (EDC) at a flow rate of 25 μL/min. AURKA was immobilized on both Ch1 and Ch3 channels of the activated sensor chip by using standard amine-coupling procedures [42]. Flow cell Ch2 was left empty and used as a control. Briefly, a 0.1 mg/mL AURKA solution (in 10 mM sodium acetate, pH 4.5) was injected at 10 μL/min on channels 1 and 3 (channel 2 was used as reference), followed by a 70 μL injection of 1 M ethanolamine pH 8.0 to block any remaining activated groups on the surface. AURKA was captured to a density of ~14,000 resonance units (RUs) on both Ch1 and Ch3 flow cells.
A dissociation of 180 s was used and a mild regeneration of the surfaces was carried out every three injections using a solution of 1 M NaCl and 10 mM NaOH. At least two experiments for each analyte were performed. The interaction of the tested inhibitors with immobilized AURKA was detected as a measure of the change in mass concentration, expressed in RUs. […] All sensorgrams were processed using double referencing [44]. First, responses from the reference surface (Ch2) were subtracted from the binding responses collected over the reaction surfaces to correct for bulk refractive index changes between the flow buffer and analyte sample. […] To obtain kinetic rate constants and affinity constants, the corrected response data were fit in the QDAT software. […] The equilibrium dissociation constant (Kd) was determined by the ratio koff/kon.

[3] = test system: AURKA; settings: cited from earlier work
[4] = biological target: T2, AURKA/N-Myc complex (Homo sapiens, UniProt O14965); experiment: In situ Proximity Ligation Assay of AURKA/N-Myc in U2OS MYCN cells; type: cell-based
T2 construct: endogenous in cells; host or cells: U2OS FRT/TO Flp-In; AURKA endogenous, N-Myc-tFT from a stably integrated, doxycycline-inducible construct
T2 sequence (O14965 1-403): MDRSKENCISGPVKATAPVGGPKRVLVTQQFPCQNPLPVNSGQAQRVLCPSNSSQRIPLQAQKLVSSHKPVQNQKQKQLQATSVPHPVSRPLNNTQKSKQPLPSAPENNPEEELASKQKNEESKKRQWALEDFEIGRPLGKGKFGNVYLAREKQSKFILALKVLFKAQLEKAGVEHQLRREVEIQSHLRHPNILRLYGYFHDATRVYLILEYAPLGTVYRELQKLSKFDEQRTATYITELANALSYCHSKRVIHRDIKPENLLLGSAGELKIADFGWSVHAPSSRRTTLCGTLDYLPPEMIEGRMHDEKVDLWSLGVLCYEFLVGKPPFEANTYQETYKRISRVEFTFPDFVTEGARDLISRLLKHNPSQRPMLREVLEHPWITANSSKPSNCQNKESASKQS
Text: After treatment with the investigated inhibitors, the raw number of isPLA spots within the cell nuclei was normalized by the mean value of the control population. Cells were then assigned to four different classes, based on their number of normalized spots per nucleus (Figure 4C).
(C) in situ Proximity Ligation Assays to visualize the AURKA/N-Myc complex formation. […] The histograms on the right show the distribution (%) of cells in classes, defined by isPLA spot values. Values represent isPLA spots per nucleus, normalized to the average value in control cells (at least 1400 measured cells per condition, from four independent experiments); mean and SDare shown. Statistical analysis by 2-way ANOVA-Tukey’s multiple comparison, *: p < 0.05; ***: p < 0.001.
The Duolink PLA kit (DUO92007, Sigma-Aldrich) was used according to the manufacturer’s instructions. […] Counterstaining with DAPI (DUO82040, DAPI mounting media, Sigma Aldrich) was performed at the end of the procedure. For quantification of isPLA fluorescence signals, samples were analyzed with an inverted microscope Eclipse Ti (Nikon) using a Clara camera (ANDOR technology) and 60× (oil immersion, N.A. 1.4) objective along the z-axis every 0.4 μm for a range of 3.2 μm (for the U2OS MYCN cell line) or 5 μm (for the IMR-32 cell line). Images were acquired in the automated mode with the JOBS module of the Nis-Elements H.C. […]

[5] = test system: IMR-32 cells; experiment: Cell death (PARP-1 cleavage) and morphology of IMR-32 cultures; type: cell-based; settings: IMR-32, 1 μM, 48 h
[6] = test system: IMR-32 cells; experiment: FACS analysis (PI) of cell cycle and sub-G1 DNA content; type: cell-based; settings: IMR-32, 1 μM, 48 h; DMSO about 8%
Text: We then moved to a neuroblastoma MYCN-amplified cell line, IMR-32.
(C) FACS analysis of IMR-32 cells treated as in (A) and stained with PI. The region used to evaluate the fraction of cells displaying sub-G1 DNA content is indicated. The percentage of vital cells distributed in each phase of the cell cycle, as well as the percentage of cells with sub-G1 DNA content calculated on the total acquired events, are shown (one experiment representative of three independent experiments).
To analyze the cell-cycle phases distribution, both non-adherent and adherent cells were collected by centrifugation, washed with PBS, and fixed with 50% methanol overnight at 4 °C. Cell-cycle phase distribution was analyzed after incubation for 30 min in the dark with propidium iodide (PI, 0.03 mg/mL) and RNAsi A (0.2 mg/mL) using a flow cytofluorimeter Epics XL apparatus (Beckman Coulter, Brea, CA, USA). […] Cell samples were analyzed in a Coulter Epics XL cytofluorometer (Beckman Coulter) equipped with EXPO 32 ADC software. At least 10,000 cells per sample were acquired. The percentage of cells in the different phases of cell-cycle and in the sub-G1 compartment was calculated using Flowing Software 2.5.1.

SMILES: O=C(Nc1ccc(Nc2nccc(Nc3cc(C4CCCC4)[nH]n3)n2)cc1)Nc1cccc(C(F)(F)F)c1 [CD532]
half-life [1]: short half-life
oral bioavailability [1]: poor oral bioavailability

Koff [2]: 12.0 ± 0.09 s^−1 × 10^−3
Kon [2]: 7.8 ± 0.1 M^−1s^−1 × 10^6
Kd ([2]; koff/kon): 1.55 ± 0.03 nM
SMILES: O=C(c1cccc(Cl)c1F)N1CCN(Cc2cccc(Nc3nccs3)n2)CC1 [MK8754, MK8745]
IC50 [3]: 0.6 nM

AURKA/N-Myc interaction (isPLA spots per nucleus) [4]: significantly reduced
SMILES: O=C(O)c1ccc(Nc2ncc3c(n2)-c2ccc(Cl)cc2C(c2c(F)cccc2F)=NC3)cc1 [MLN8054]
cleaved PARP-1 (cell death induction) ([5]; Western blot): a fraction of cleaved PARP-1
cells with sub-G1 DNA content [6]: ~30%

SMILES: COc1cc2c(Nc3ccc(NC(=O)c4ccccc4)cc3)ncnc2cc1OCCCN1CCOCC1 [ZM447439]
AURKA/N-Myc interaction (isPLA spots per nucleus) ([4]; U2OS MYCN, 1 μM, MG-132 4 h before fixation): no difference between control and treated cells
cell morphology ([5]; bright-field microscopy): only induced spherical mitotic shapes
